These results are taken from patent publication US11422091B2, “Turn-on near infrared fluorescent probes for imaging lysosomal ROS in live cells at subcellular resolution” (University of Massachusetts, priority 2015, dated 2022).

Data set [1] in a line: Fluorescent responses of RTMI to various ROS in PBS. The method, then:
Fresh solutions of L-ascorbic acid (50 mM), hydrogen peroxide (100 mM), tert-butyl hydrogen peroxide (TBHP, 100 mM), 3-morpholinosydnonimine (SIN-1, 5 mM), glutathione reduced form (GSH, 10 mM) and glutathione oxidized form (GSSG, 10 mM) were prepared with distilled water. […]
The hydroxyl and butoxyl radicals were generated in situ by reacting hydrogen peroxide or TBHP with Fe^2+. Fresh 10 mM Fe^2+ was made in 0.1 M HCl solution using ferrous ammonium sulfate [Fe(NH4)2(SO4)2.6H2O]. A 10 μM RTMI solution, in PBS, containing 10 μM Fe^2+ was made and either hydrogen peroxide or TBHP was added to this solution to generate a 100 μM concentration.
Fluorescence spectra were recorded on a Perkin-Elmer LS55 luminescence spectrometer at 293 K. The excitation wavelengths and filters used were indicated in the figures. The pH measurements were carried out on a Corning pH meter equipped with a Sigma-Adrich micro combination electrode calibrated with standard buffer solution.
Fluorescent responses of RTMI (100 μM) to various ROS were monitored in PBS, containing 1% methanol. Various reactive oxygen species were added to the 100 μM RTMI solutions, at a 5:1 molar ratio to RTMI, and the fluorescence intensity was recorded after 5 min of incubation at 25° C. Superoxide (O2.^−) was added as solid KO2. Stock solution solutions of hydrogen peroxide, tert-butyl hydrogen peroxide (TBHP), hypochlorite, 3-morpholinosydnonimine (SIN-1), glutathione (GSH) and 1,4-hydroquinone were made and then added to the RTMI solution, to generate a 500 μM final concentration. 3-(aminopropyl)-1-hydroxy-3-isopropyl-2-oxo-1-triazene (NOC-5, 1 mM) was made as a 10 mM sodium hydroxide solution and then added to the RTMI solution, to generate a 500 μM final concentration. The hydroxyl and butoxyl radicals were generated in situ by reacting hydrogen peroxide or TBHP with Fe^2+. A 100 μM RTMI solution, in PBS, containing 500 μM Fe^2 was made and either hydrogen peroxide or TBHP was added to this solution to generate a 500 μM concentration.

The subject of the next data set is BAEC cells. The experiment in a line: Detection of ROS in live BAEC cells by fluorescence microscopy. The class given is cell-based, bovine. To be noted: HO., H2O2, KO2, TBO, TBHP, peroxynitrite or ox-LDL, RTMI 10 μM. Here is the method: In one embodiment, the RTMI may be used to analyze ROS species within living systems. The RTMI sensor solution was applied to live cells and analyzed under a fluorescence microscope. Each of the various ROS (HO., H2O2, KO2, TBO, TBHP, peroxynitrite) or ROS inducer (ox-LDL) that were present combined with the RTMI sensor were incubated with BAEC cells.
The sensor RTMI was dissolved in DMF at a concentration of 10 mM. 1 μL of the DMF solution was added to cell medium without fetal bovine serum. Cell culture medium was removed from the cells in the culture dish and replaced with the fresh medium containing the sensor.
Oxidized low density lipoprotein (Ox-LDL, a stimulation factor for ROS production in cells) was dissolved in water solution and the final concentration in cell media was 20 μg/mL.
Commercial H2O2 (30% wt, density of 1.1 g/ml, MW 34.02 g/mol) was diluted with deionized water to make a fresh solution of 100 mM. 1 μL of the fresh solution was added to cell media to generate a final concentration of 100 μM.
SIN1 (a peroxyitrite donor) was dissolved in deionized water to the concentration of 10 mM; 10 μL of this solution added to cell media to generate a final concentration of 100 μM.
Fe^2+ was freshly made from ferrous ammonium sulfate (MW 392.15 g/mol) dissolved in 0.1 M HCl (DI water solution) to generate a fresh solution of 100 mM. […]

Data set [2] can be described thus: Photo stability of the sensor. The class given is physicochemical.
The subject of data set [3] is Bovine Aortic Endothelial Cells (BAEC). The experiment in a line: Co-localization with Mito Tracker Green and Lyso Tracker Blue, confocal imaging in BAEC. The format is cell-based. To be noted: BAEC preloaded with TBHP (100 μM) 30 min, RTMI (10 μM) 30 min. The method, then:
Confocal fluorescence imaging studies were performed with a Zeiss LSM 710 laser scanning microscope.

The mark [4] stands for this setting: RTMI 100 μM in PBS, 1% methanol, 500 μM, 5 min, 25° C.

Turning to `CCCN1c2ccccc2C(C)(C)C1/C=C/C1=C2Oc3cc(O)ccc3C=C2CCC1` (stereo not drawn) [RTMI], in data set [1] (setting [4]), the “fluorescence response to TBHP” value is reported as “turn-on”, the “fluorescence response to hydrogen peroxide” value is “turn-on” and the “fluorescence response to peroxynitrite (generated by SIH 1)” value is on record as “turn-on”. Besides, the “fluorescence response to superoxide (O2.-)” value in data set [1] (RTMI 100 μM in PBS, 1% methanol, solid KO2, 5:1 molar ratio, 5 min, 25° C.) is recorded as “turn-on”. For the same compound, the “fluorescence response to butoxyl radical (TBO)” value in data set [1] (RTMI 100 μM in PBS, generated in situ from TBHP 500 μM and Fe2+ 500 μM) is listed as “turn-on”. For the same compound, the “fluorescence response to hydroxyl radical” value in data set [1] (RTMI 100 μM in PBS, generated in situ from hydrogen peroxide 500 μM and Fe2+ 500 μM) was “turn-on”. Moreover, in data set [1] (beyond baseline fluorescence), the “fluorescence response to Fe2+” value was “does not respond”, the “fluorescence response to GSH” value is “does not respond”, the “fluorescence response to GSSG” value is recorded as “does not respond” and the “fluorescence response to nitrite” value was “does not respond”. Further, in data set [1] (beyond baseline fluorescence, NOC-5), the “fluorescence response to nitric oxide radical” value is listed as “does not respond”. Moreover, in data set [1] (in physiological buffer, near IR region), the “fluorescence peak upon reacting with ROS” value was 705 nm. The “fluorescence emission in the near IR region of cells treated with ROS or ROS inducers, compared to the control” value in the data set with BAEC cells was “strongly fluorescence emission signals”. Besides, the photo stability entry in data set [2] was “very good photo stability”. For the same compound, the “subcellular location of ROS detected by the sensor” value in data set [3] was “in lysosomes”.
